The text below walks through data of paper PMC6416077 (Journal of the American Chemical Society, 2019).

In the assay the target is T1, HsOMT (Hpm5) (Hypomyces subiculosus, UniProt B3FWS1).
T1 sequence (B3FWS1 1-398): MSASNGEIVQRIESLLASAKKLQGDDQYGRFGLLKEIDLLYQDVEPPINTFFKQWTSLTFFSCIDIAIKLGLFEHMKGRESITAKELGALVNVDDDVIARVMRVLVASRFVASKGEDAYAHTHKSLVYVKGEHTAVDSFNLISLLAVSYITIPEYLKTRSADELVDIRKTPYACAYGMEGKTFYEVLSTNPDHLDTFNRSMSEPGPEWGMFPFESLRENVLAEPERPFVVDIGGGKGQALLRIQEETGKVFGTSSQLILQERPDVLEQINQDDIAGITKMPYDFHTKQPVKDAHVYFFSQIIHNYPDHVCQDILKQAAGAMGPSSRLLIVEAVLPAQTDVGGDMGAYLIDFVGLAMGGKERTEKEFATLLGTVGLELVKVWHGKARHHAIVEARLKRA
The assay can be described thus: biocatalytic O-methylation in S. cerevisiae expressing HsOMT, LC-MS. In kind it is cell-based. The note with it: native substrate; OH-5 (para) methylation to 5-O-methyl-DHZ.

In the case of `C[C@H]1C/C=C/[C@@H](O)CCC/C=C/c2cc(O)cc(O)c2C(=O)O1` [compound 3, DHZ], the “biocatalytic O-methylation in S. cerevisiae expressing HsOMT, LC-MS” value is reported as “methylates the C-5 phenolic hydroxyl of the RAL14”.
